Test results as given in patent US9776995B2, “Bicyclic sulfonamide compounds as sodium channel inhibitors” (AMGEN INC., priority 2013, dated 2017).

molecular target: Nav 1.7 (Homo sapiens (Human), UniProt Q15858); assay: Nav 1.7 in vitro PX assay (PatchXpress whole cell voltage clamp); assay type: cell-based; details: not given;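 note: holding potential set for 20 to 50% inactivation, sodium current evoked by a 20 ms step to −10 mV, peak current inhibition read after compound exposure, 3–5 cells per concentration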
Sequence (Q15858 whole entry): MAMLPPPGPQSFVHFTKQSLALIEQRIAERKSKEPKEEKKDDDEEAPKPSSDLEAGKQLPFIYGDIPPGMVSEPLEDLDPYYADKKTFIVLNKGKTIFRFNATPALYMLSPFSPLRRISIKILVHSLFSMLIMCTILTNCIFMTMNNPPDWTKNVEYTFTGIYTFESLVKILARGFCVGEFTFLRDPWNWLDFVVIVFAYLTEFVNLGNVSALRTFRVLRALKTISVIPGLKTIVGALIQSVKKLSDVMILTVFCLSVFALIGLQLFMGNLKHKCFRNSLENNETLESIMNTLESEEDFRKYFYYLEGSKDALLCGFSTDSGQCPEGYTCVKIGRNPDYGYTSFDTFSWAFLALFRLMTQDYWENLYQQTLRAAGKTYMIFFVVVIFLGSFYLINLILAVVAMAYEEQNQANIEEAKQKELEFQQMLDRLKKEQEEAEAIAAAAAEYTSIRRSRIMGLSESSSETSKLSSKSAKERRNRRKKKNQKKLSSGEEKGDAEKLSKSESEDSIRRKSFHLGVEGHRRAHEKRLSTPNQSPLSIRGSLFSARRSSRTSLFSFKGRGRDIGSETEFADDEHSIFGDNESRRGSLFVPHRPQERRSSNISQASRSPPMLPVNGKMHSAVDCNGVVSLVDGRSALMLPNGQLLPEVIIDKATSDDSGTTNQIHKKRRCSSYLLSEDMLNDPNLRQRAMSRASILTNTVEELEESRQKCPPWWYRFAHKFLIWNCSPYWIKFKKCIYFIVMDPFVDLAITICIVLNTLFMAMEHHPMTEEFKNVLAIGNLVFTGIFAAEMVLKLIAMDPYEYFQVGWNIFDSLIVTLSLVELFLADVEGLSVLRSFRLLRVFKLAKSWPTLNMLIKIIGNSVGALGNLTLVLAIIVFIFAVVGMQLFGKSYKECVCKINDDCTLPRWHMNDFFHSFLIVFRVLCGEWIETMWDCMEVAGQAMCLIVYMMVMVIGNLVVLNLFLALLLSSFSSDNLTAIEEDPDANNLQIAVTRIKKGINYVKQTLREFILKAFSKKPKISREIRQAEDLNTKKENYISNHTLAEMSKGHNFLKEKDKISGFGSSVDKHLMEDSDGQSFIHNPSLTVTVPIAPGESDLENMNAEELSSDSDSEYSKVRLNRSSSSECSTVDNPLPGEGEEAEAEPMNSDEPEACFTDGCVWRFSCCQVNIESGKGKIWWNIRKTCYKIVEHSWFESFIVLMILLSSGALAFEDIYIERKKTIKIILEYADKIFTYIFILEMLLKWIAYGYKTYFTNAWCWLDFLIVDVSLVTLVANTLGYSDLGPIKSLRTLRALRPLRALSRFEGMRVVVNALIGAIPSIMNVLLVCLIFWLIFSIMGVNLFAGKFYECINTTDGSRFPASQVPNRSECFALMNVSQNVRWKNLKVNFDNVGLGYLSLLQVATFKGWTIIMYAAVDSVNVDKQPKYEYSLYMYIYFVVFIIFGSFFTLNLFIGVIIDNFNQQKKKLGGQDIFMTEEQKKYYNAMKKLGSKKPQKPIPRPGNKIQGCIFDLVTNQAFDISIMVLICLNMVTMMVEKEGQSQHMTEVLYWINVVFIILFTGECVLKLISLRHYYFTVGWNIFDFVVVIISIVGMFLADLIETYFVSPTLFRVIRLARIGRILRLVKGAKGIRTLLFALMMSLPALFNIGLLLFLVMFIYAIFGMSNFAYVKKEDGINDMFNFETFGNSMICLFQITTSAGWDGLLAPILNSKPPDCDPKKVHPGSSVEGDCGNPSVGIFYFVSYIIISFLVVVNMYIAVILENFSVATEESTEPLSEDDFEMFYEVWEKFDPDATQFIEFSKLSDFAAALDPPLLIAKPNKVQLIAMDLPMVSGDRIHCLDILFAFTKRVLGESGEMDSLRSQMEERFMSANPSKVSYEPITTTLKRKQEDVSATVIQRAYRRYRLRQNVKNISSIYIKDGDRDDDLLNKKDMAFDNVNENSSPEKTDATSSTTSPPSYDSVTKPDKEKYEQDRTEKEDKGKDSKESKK

| Compound | IC50 [nM] |
| --- | --- |
| COc1cc(-c2cccc(F)c2)c(Cl)cc1-c1ncnc2cc(S(=O)(=O)Nc3cscn3)ccc12 [Example 378, 4-(2-chloro-3′-fluoro-5-methoxy-[1,1′-biphenyl]-4-yl)-N-(thiazol-4-yl)quinazoline-7-sulfonamide 2,2,2-trifluoroacetate] | 231 |
| COc1cc(C(F)(F)F)c(Cl)cc1-c1ncnc2cc(S(=O)(=O)Nc3ccon3)ccc12 [Example 59, 4-(5-CHLORO-2-METHOXY-4-(TRIFLUOROMETHYL)PHENYL)-N-(ISOXAZOL-3-YL)QUINAZOLINE-7-SULFONAMIDE] | 182 |

same assay, conditions: HEK 293 cells stably transfected with human Nav1.7; PatchXpress; partially inactivated state

| Compound | IC50 [nM] |
| --- | --- |
| COc1cc(-c2cc(F)cc(Cl)c2)c(F)cc1-c1[nH]c(=O)cc2cc(S(=O)(=O)Nc3ccon3)ccc12 [Example 547, 1-(3′-chloro-2,5′-difluoro-5-methoxy-4-biphenylyl)-N-3-isoxazolyl-3-oxo-2,3-dihydro-6-isoquinolinesulfonamide] | 20 |
| COc1cc(-c2cc(Cl)ccc2F)c(C)cc1-c1ncnc2cc(S(=O)(=O)Nc3ccon3)ccc12 [Example 557, 4-(5′-chloro-2′-fluoro-5-methoxy-2-methyl-4-biphenylyl)-N-3-isoxazolyl-7-quinazolinesulfonamide] | 56 |
| COc1cc(-c2ccc(F)c(Cl)c2)c(C)cc1-c1ncnc2cc(S(=O)(=O)Nc3ncccn3)ccc12 [Example 345, 4-(3′-chloro-4′-fluoro-5-methoxy-2-methyl-[1,1′-biphenyl]-4-yl)-N-(pyrimidin-2-yl)quinazoline-7-sulfonamide] | 78 |
| COc1cc(-c2cccc(F)c2)c(Cl)cc1-c1ncnc2cc(S(=O)(=O)Nc3ccsn3)ccc12 [Example 361, 4-(2-chloro-3′-fluoro-5-methoxy-[1,1′-biphenyl]-4-yl)-N-(isothiazol-3-yl)quinazoline-7-sulfonamide] | 369 |
| COc1cc(-c2cccc(Cl)c2)c(F)cc1-c1ncnc2cc(S(=O)(=O)Nc3ccsn3)ccc12 [Example 377, 4-(3′-Chloro-2-fluoro-5-methoxy-4-biphenylyl)-N-3-isothiazolyl-7-quinazolinesulfonamide] | 90 |
| COc1cc(-c2cc(OC)c(-c3ncnc4cc(S(=O)(=O)Nc5ccon5)ccc34)cc2C)ccc1F [Example 559, 4-(4′-fluoro-3′,5-dimethoxy-2-methyl-4-biphenylyl)-N-3-isoxazolyl-7-quinazolinesulfonamide] | 57 |
| COc1cc(-c2cccc(F)c2)c(Cl)cc1-c1c(N)nnc2cc(S(=O)(=O)Nc3ccon3)ccc12 [Example 446, 3-AMINO-4-(2-CHLORO-3′-FLUORO-5-METHOXY-[1,1′-BIPHENYL]-4-YL)-N-(ISOXAZOL-3-YL)CINNOLINE-7-SULFONAMIDE] | 28 |
| COc1cc(-c2ccc(Cl)c(C)c2)c(Cl)cc1-c1nccc2cc(S(=O)(=O)Nc3nncs3)ccc12 [Example 379, 1-(2,4′-dichloro-5-methoxy-3′-methyl-4-biphenylyl)-N-1,3,4-thiadiazol-2-yl-6-isoquinolinesulfonamide] | 14 |
| COc1cc(-c2cccc(Cl)c2)cc(F)c1-c1nccc2cc(S(=O)(=O)Nc3ccon3)ccc12 [Example 538, 1-(3′-chloro-3-fluoro-5-methoxy-4-biphenylyl)-N-3-isoxazolyl-6-isoquinolinesulfonamide] | 298 |
| COc1cc(-c2cccc(F)c2)c(Cl)cc1-c1c(C)nnc2cc(S(=O)(=O)Nc3ccon3)ccc12 (atropisomer, axis not shown; (M)) [Example 441, (M)-4-(2-chloro-3′-fluoro-5-methoxy-[1,1′-biphenyl]-4-yl)-N-(isoxazol-3-yl)-3-methylcinnoline-7-sulfonamide] | 52 |
| COc1cc(-c2cccc(F)c2)c(Cl)cc1-c1c(C#N)cnc2cc(S(=O)(=O)Nc3ccon3)ccc12 (atropisomer, axis not shown; (M)) [Example 334, (M)-4-(2-chloro-3′-fluoro-5-methoxy-[1,1′-biphenyl]-4-yl)-3-cyano-N-(isoxazol-3-yl)quinoline-7-sulfonamide] | 101 |
| COc1cc(-c2ccc(Cl)c(C)c2)c(F)cc1-c1cn(C)c(=O)c2cc(S(=O)(=O)Nc3ccon3)ccc12 [Example 454, 4-(4′-CHLORO-2-FLUORO-5-METHOXY-3′-METHYL-[1,1′-BIPHENYL]-4-YL)-N-(ISOXAZOL-3-YL)-2-METHYL-1-OXO-1,2-DIHYDROISOQUINOLINE-7-SULFONAMIDE] | 51 |
| COc1cc(-c2cccc(Cl)c2)c(Cl)cc1-c1ncnc2cc(S(=O)(=O)Nc3ncccn3)ccc12 [Example 437, 4-(2,3′-DICHLORO-5-METHOXY-[1,1′-BIPHENYL]-4-YL)-N-(PYRIMIDIN-2-YL)QUINAZOLINE-7-SULFONAMIDE] | 72 |
| COc1cc(-c2cccc(F)c2)c(Cl)cc1-c1c(C)cnc2cc(S(=O)(=O)Nc3ccon3)ccc12 (atropisomer, axis not shown; (P)) [Example 331, (P)-4-(2-chloro-3′-fluoro-5-methoxy-[1,1′-biphenyl]-4-yl)-N-(isoxazol-3-yl)-3-methylquinoline-7-sulfonamide] | 10500 |
| COc1cc(-c2cccc(F)c2)c(Cl)cc1-c1c(OC)cnc2cc(S(=O)(=O)Nc3ccon3)ccc12 (atropisomer, axis not shown; (M)) [Example 339, (M)-4-(2-chloro-3′-fluoro-5-methoxy-[1,1′-biphenyl]-4-yl)-N-(isoxazol-3-yl)-3-methoxyquinoline-7-sulfonamide] | 630 |
| COc1cc(Cl)cc(-c2cc(OC)c(-c3ncnc4cc(S(=O)(=O)Nc5ccon5)ccc34)cc2F)c1 [Example 537, 4-(3′-chloro-2-fluoro-5,5′-dimethoxy-4-biphenylyl)-N-3-isoxazolyl-7-quinazolinesulfonamide] | 36 |
| COc1cc(-c2cc(F)ccc2F)c(C)cc1-c1ncnc2cc(S(=O)(=O)Nc3ccon3)ccc12 [Example 564, 4-(2′,5′-difluoro-5-methoxy-2-methyl-4-biphenylyl)-N-3-isoxazolyl-7-quinazolinesulfonamide] | 94 |
| COc1cc(-c2cccc(Cl)c2)c(F)cc1-c1cn(C)c(=O)c2cc(S(=O)(=O)Nc3ccon3)ccc12 [Example 344, 4-(3′-chloro-2-fluoro-5-methoxy-[1,1′-biphenyl]-4-yl)-N-(isoxazol-3-yl)-2-methyl-1-oxo-1,2-dihydroisoquinoline-7-sulfonamide] | 49 |
| COc1cc(-c2cc(Cl)ccc2C)c(C)cc1-c1ncnc2cc(S(=O)(=O)Nc3ccon3)ccc12 [Example 558, 4-(5′-chloro-5-methoxy-2,2′-dimethyl-4-biphenylyl)-N-3-isoxazolyl-7-quinazolinesulfonamide] | 41 |
| COc1cc(F)cc(-c2cc(OC)c(-c3nccc4cc(S(=O)(=O)Nc5ccon5)ccc34)cc2F)c1 [Example 316, 1-(2,3′-difluoro-5,5′-dimethoxy-4-biphenylyl)-N-3-isoxazolyl-6-isoquinolinesulfonamide] | 40 |

same assay, conditions: PatchXpress (PX)

| Compound | IC50 [nM] |
| --- | --- |
| COc1cc(C(F)F)c(C2CC2)cc1-c1nccc2cc(S(=O)(=O)Nc3ccon3)ccc12 [Example 251, 1-(5-cyclopropyl-4-(difluoromethyl)-2-methoxyphenyl)-N-3-isoxazolyl-6-isoquinolinesulfonamide] | 431 |
| COc1cc(-c2cc(C)c(C)cc2C)c(C)cc1-c1nccc2cc(S(=O)(=O)Nc3ccon3)ccc12 [Example 275, N-3-isoxazolyl-1-(5-methoxy-2,2′,4′,5′-tetramethyl-4-biphenylyl)-6-isoquinolinesulfonamide] | 242 |
| COc1cc(-c2ccc(F)c(F)c2)c(C)cc1-c1nccc2cc(S(=O)(=O)Nc3ccon3)ccc12 [Example 62, 1-(3′,4′-DIFLUORO-5-METHOXY-2-METHYL-[1,1′-BIPHENYL]-4-YL)-N-(ISOXAZOL-3-YL)ISOQUINOLINE-6-SULFONAMIDE] | 37.6 |
| COc1cc(-c2ccc(Cl)c(C)c2)c(Cl)cc1-c1nncc2cc(S(=O)(=O)Nc3ccon3)ccc12 [Example 245, 1-(2,4′-dichloro-5-methoxy-3′-methyl-4-biphenylyl)-N-3-isoxazolyl-6-phthalazinesulfonamide] | 15.4 |
| COc1cc(-c2ccc(Cl)c(F)c2)c(C)cc1-c1ncnc2cc(S(=O)(=O)Nc3ccon3)ccc12 [Example 271, 4-(4′-chloro-3′-fluoro-5-methoxy-2-methyl-4-biphenylyl)-N-3-isoxazolyl-7-quinazolinesulfonamide] | 47.2 |
| COc1cc(-c2cccc(F)c2)c(Cl)cc1-c1nccc2cc(S(=O)(=O)Nc3ccsn3)ccc12 [Example 254, 1-(2-chloro-3′-fluoro-5-methoxy-4-biphenylyl)-N-3-isothiazolyl-6-isoquinolinesulfonamide] | 289 |
| COc1cc(-c2cccc(F)c2)c(Cl)cc1-c1nccc2cc(S(=O)(=O)Nc3ncco3)ccc12 [Example 257, 1-(2-chloro-3′-fluoro-5-methoxy-4-biphenylyl)-N-1,3-oxazol-2-yl-6-isoquinolinesulfonamide] | 222 |
| COc1cc(-c2ccc(C)c(Cl)c2)c(Cl)cc1-c1nncc2cc(S(=O)(=O)Nc3ccon3)ccc12 [Example 246, 1-(2,3′-dichloro-5-methoxy-4′-methyl-4-biphenylyl)-N-3-isoxazolyl-6-phthalazinesulfonamide] | 17.2 |

same assay, conditions: in-vitro Nav 1.7 PX (PatchXpress)

| Compound | IC50 [nM] |
| --- | --- |
| CCOc1ccc(-c2cc(OC)c(-c3ncnc4cc(S(=O)(=O)Nc5ccon5)ccc34)cc2F)cc1C [Example 304, 4-(4′-ethoxy-2-fluoro-5-methoxy-3′-methyl-4-biphenylyl)-N-3-isoxazolyl-7-quinazolinesulfonamide] | 610 |
| COc1cc(-c2cc(F)cnc2OC)c(C)cc1-c1nccc2cc(S(=O)(=O)Nc3ccon3)ccc12 [Example 279, 1-(4-(5-fluoro-2-methoxy-3-pyridinyl)-2-methoxy-5-methylphenyl)-N-3-isoxazolyl-6-isoquinolinesulfonamide] | 63 |
| COc1cc(-c2cccc(F)c2)c(Cl)cc1-c1nccc2cc(S(=O)(=O)Nc3ncc(F)cn3)ccc12 [Example 294, 1-(2-chloro-3′-fluoro-5-methoxy-4-biphenylyl)-N-(5-fluoro-2-pyrimidinyl)-6-isoquinolinesulfonamide] | 256 |
| COc1cc(-c2ccc(C)c(Cl)c2)ccc1-c1nccc2cc(S(=O)(=O)Nc3ccon3)ccc12 [Example 287, 1-(3′-chloro-3-methoxy-4′-methyl-4-biphenylyl)-N-3-isoxazolyl-6-isoquinolinesulfonamide] | 111 |
